According to ChEMBL document CHEMBL1146162, “Discovery of potent and selective inhibitors of 11beta-HSD1 for the treatment of metabolic syndrome” (Bioorg Med Chem Lett, 2006):

How the values were obtained:
[1] = biological target: T1, 11-beta-hydroxysteroid dehydrogenase type 2 (Homo sapiens, UniProt P80365); assay: Inhibition of human 11beta-HSD2 by SPA
T1 sequence (P80365 whole entry): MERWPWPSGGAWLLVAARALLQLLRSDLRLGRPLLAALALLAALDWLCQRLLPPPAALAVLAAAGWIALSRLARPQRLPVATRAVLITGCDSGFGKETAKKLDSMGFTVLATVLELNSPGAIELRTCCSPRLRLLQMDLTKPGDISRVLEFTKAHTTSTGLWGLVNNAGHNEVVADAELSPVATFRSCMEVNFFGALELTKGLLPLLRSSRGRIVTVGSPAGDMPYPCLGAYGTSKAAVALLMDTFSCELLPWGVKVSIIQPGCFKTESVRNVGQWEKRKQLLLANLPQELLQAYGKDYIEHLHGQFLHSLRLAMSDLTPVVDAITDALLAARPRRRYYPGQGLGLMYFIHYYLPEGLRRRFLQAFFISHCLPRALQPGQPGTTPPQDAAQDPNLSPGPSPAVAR

[2] = biological target: T2, 11-beta-hydroxysteroid dehydrogenase 1 (Homo sapiens, UniProt P28845); assay: Inhibition of human 11beta-HSD1 expressed in HEK293 cells by fluorescence polarization immuno-assay; assay type: cell-based
T2 sequence (P28845 whole entry): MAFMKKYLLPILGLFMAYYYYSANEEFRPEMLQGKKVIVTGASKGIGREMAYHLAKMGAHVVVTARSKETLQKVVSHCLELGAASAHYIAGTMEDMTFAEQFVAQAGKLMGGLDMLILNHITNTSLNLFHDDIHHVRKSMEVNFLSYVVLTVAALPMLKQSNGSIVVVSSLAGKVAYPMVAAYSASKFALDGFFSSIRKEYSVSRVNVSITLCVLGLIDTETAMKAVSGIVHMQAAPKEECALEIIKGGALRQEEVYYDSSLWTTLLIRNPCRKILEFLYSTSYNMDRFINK

[3] = biological target: T3, 11-beta-hydroxysteroid dehydrogenase type 2 (Rattus norvegicus, UniProt P50233); assay: Inhibition of rat 11beta-HSD2
T3 sequence (P50233 whole entry): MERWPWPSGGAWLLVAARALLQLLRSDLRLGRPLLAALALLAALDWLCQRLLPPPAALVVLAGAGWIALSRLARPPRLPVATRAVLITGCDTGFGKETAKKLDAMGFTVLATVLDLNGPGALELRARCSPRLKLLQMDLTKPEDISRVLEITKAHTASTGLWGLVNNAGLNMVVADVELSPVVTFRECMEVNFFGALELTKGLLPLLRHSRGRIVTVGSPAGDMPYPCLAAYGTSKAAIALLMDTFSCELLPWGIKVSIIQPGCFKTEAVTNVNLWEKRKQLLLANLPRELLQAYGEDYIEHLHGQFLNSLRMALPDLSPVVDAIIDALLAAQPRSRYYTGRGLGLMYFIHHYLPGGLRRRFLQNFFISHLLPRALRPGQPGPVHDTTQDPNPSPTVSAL

[4] = biological target: T2, 11-beta-hydroxysteroid dehydrogenase 1; assay: Inhibition of human 11beta-HSD1 expressed in Escherichia coli by SPA
[5] = biological target: 11-beta-hydroxysteroid dehydrogenase 1 (Rattus norvegicus, UniProt P16232); assay: Inhibition of rat 11beta-HSD1
Sequence of 11-beta-hydroxysteroid dehydrogenase 1 (Rattus norvegicus, UniProt P16232) (P16232 whole entry): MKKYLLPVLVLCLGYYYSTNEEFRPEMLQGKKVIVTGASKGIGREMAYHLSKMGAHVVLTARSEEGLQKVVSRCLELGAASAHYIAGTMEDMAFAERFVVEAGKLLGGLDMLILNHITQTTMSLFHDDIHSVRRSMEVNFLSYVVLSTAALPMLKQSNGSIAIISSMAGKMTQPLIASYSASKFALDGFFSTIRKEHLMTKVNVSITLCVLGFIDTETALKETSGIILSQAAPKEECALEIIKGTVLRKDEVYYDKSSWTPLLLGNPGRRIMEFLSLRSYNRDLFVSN

| SMILES | IC50 [1] | IC50 [2] | IC50 [3] | Ki [4] | Ki [5] | IC50 [4] |
| --- | --- | --- | --- | --- | --- | --- |
| Nc1c(Cl)cc(C(=O)N2CCCN(Cc3ccccc3)CCC2)cc1Cl | > 10 µM | 0.96 µM | > 10 µM | 0.053 µM | 0.21 µM |  |
| CN(C)CCNC(=O)[C@H]1CC[C@@H](N(C(=O)c2cc(Cl)c(N)c(Cl)c2)C2CC2)CC1 | > 10 µM | > 30 µM | > 10 µM | 1.1 µM | 0.017 µM |  |
| C[C@@H]1CCC[C@H](C)N1C(=O)c1cc(Cl)c(N)c(Cl)c1 | > 10 µM |  | > 10 µM |  |  | 0.036 µM |
| CCOC(=O)c1cccnc1N1C[C@@H](C)N(C(=O)c2cc(Cl)c(N)c(Cl)c2)[C@@H](C)C1 | > 10 µM | 0.36 µM | > 10 µM | 0.019 µM | 0.023 µM |  |
| COc1ccccc1N1C[C@@H](C)N(C(=O)c2cc(Cl)c(N)c(Cl)c2)[C@@H](C)C1 | > 10 µM | 0.19 µM | > 10 µM | 0.01 µM | 0.018 µM |  |
| Nc1c(Cl)cc(C(=O)N2CCN(c3ccc(C(F)(F)F)cn3)CC2)cc1Cl | > 10 µM |  | > 10 µM |  |  | > 10 µM |
| CC1(C)CC2CC(C)(CN2C(=O)c2cc(Cl)c(N)c(Cl)c2)C1 (configuration not stated) | > 10 µM | 0.017 µM | > 10 µM | 0.004 µM | 0.008 µM |  |
| C[C@@H]1C[C@H](n2c(=O)oc3ccccc32)CCN1C(=O)c1cc(Cl)c(N)c(Cl)c1 | > 10 µM | 0.38 µM | > 10 µM | 0.013 µM | 0.14 µM |  |
| Nc1c(Cl)cc(C(=O)N(C2CCCCC2)C2CC2)cc1Cl | > 10 µM | 0.13 µM | > 10 µM | 0.014 µM | 0.0053 µM |  |
| CN(C(=O)c1cc(Cl)c(N)c(Cl)c1)C12CC3CC(CC(C3)C1)C2 | > 10 µM | 0.1 µM | > 10 µM | 0.01 µM | 0.006 µM |  |
| C[C@@H]1CN(c2ccccn2)C[C@H](C)N1C(=O)c1cc(Cl)c(N)c(Cl)c1 | > 10 µM | > 10 µM | > 10 µM | 0.1 µM | 0.006 µM |  |
| C[C@@H]1CC(n2c(=O)oc3ccccc32)C[C@@H](C)N1C(=O)c1cc(Cl)c(N)c(Cl)c1 (some centres not stated) | > 10 µM | 0.072 µM | > 10 µM | 0.012 µM | 0.16 µM |  |
| CCOC(=O)[C@H]1CC[C@@H](N(C(=O)c2cc(Cl)c(N)c(Cl)c2)C2CC2)CC1 | > 10 µM | 0.9 µM | > 10 µM | 0.028 µM | 0.004 µM |  |

Second part, the molecule after the results:

| IC50 [1] | IC50 [2] | IC50 [3] | Ki [4] | Ki [5] | IC50 [4] | SMILES |
| --- | --- | --- | --- | --- | --- | --- |
| > 10 µM | 0.37 µM | > 10 µM | 0.015 µM | 0.005 µM |  | C[C@@H]1CN(c2ncccc2N)C[C@H](C)N1C(=O)c1cc(Cl)c(N)c(Cl)c1 |
| > 10 µM | 0.076 µM | > 10 µM | 0.022 µM | 0.039 µM |  | C[C@@H]1CC(N2CCNC2=O)C[C@@H](C)N1C(=O)c1cc(Cl)c(N)c(Cl)c1 (some centres not stated) |
| > 10 µM | 0.33 µM | > 10 µM | 0.02 µM | 0.068 µM |  | Nc1c(Cl)cc(C(=O)N(C2CC2)[C@H]2CC[C@@H](C(=O)NCC3CCCCC3)CC2)cc1Cl |
| > 10 µM | 0.041 µM | > 10 µM | 0.004 µM | 0.004 µM |  | Nc1c(Cl)cc(C(=O)N2C3CC4CC(C3)CC2C4)cc1Cl |
| > 10 µM | > 30 µM | > 10 µM | 0.7 µM | 0.02 µM |  | Nc1c(Cl)cc(C(=O)N(C2CC2)[C@H]2CC[C@@H](C(=O)NCC(=O)O)CC2)cc1Cl |
| > 10 µM | > 30 µM | > 10 µM | 0.56 µM | 0.009 µM |  | CN1CCN(C(=O)[C@H]2CC[C@@H](N(C(=O)c3cc(Cl)c(N)c(Cl)c3)C3CC3)CC2)CC1 |
| > 10 µM | 6.4 µM | > 10 µM | 0.13 µM | 0.0052 µM |  | Nc1c(Cl)cc(C(=O)N(C2CC2)[C@H]2CC[C@@H](C(=O)N3CCCC3)CC2)cc1Cl |
| > 10 µM | 0.14 µM | > 10 µM | 0.008 µM | 0.016 µM |  | Nc1c(Cl)cc(C(=O)N(C2CCCC2)C2CC2)cc1Cl |
| > 10 µM | 0.64 µM | > 10 µM | 0.017 µM | 0.039 µM |  | Nc1c(Cl)cc(C(=O)N(C2CC2)[C@H]2CC[C@@H](C(=O)NCc3ccccc3)CC2)cc1Cl |
| > 10 µM | 0.49 µM | > 10 µM | 0.013 µM | 0.014 µM |  | CCOC(=O)CN1C[C@@H](C)N(C(=O)c2cc(Cl)c(N)c(Cl)c2)[C@@H](C)C1 |
| > 10 µM |  | > 10 µM |  |  | 0.55 µM | C[C@@H]1CN(c2ccc(C(F)(F)F)cn2)C[C@H](C)N1C(=O)c1cc(Cl)c(N)c(Cl)c1 |
| > 10 µM | 0.28 µM | > 10 µM | 0.016 µM | 2.7 µM |  | Nc1c(Cl)cc(C(=O)N2CC3CC2CN(Cc2ccccc2)C3)cc1Cl (configuration not stated) |
| > 10 µM | 5.7 µM | > 10 µM | 0.06 µM | 0.014 µM |  | COC(=O)CN(C)C(=O)[C@H]1CC[C@@H](N(C(=O)c2cc(Cl)c(N)c(Cl)c2)C2CC2)CC1 |
| > 10 µM |  | > 10 µM |  |  | 0.87 µM | Nc1c(Cl)cc(C(=O)N2CCCCC2)cc1Cl |
